Values quoted from earlier work in publication PMC2791716 (Biotechnology and bioengineering, 2009).
Where two headings read alike, the source gives them in different places.

Key:
[1] = no reference given
[2] = system: cell adhesion to laminin-1; conditions: ref Nakahara et al. 1996

Compound	minimum effective therapeutic concentration ([1]; systemic delivery)	minimum effective therapeutic concentration ([1]; systemic vascular concentration, converted from 50mg/kg)	inhibition of cell adhesion to laminin-1 [2]
COc1cccc2c1C(=O)c1c(O)c3c(c(O)c1C2=O)C[C@@](O)(C(=O)CO)C[C@@H]3O[C@H]1C[C@H](N)[C@H](O)[C@H](C)O1 [doxorubicin]	50 mg/kg	approximately 90 μM	–
TWYKIAFQRNRK	–	–	90%
